Assay results: ChEMBL document CHEMBL1150664, “New bioactive peroxides from marine sponges of the family plakiniidae” (2002)
Values after ≈ are worked out from the molar mass of the structure shown.

system: Aspergillus fumigatus; test: Antimicrobial activity against Aspergillus fumigatus by standard microdilution broth method; format: functional

| SMILES | IC90 [µg/mL] |
| --- | --- |
| C[C@@H]1[C@H](O)[C@@H](C)/C=C/C=C/C=C/C=C/C=C/C=C/C=C/[C@H](O[C@@H]2O[C@H](C)[C@@H](O)[C@H](N)[C@@H]2O)C[C@@H]2O[C@](O)(C[C@@H](O)C[C@@H](O)[C@H](O)CC[C@@H](O)C[C@@H](O)CC(=O)O[C@H]1C)C[C@H](O)[C@H]2C(=O)O [AMPHOTERICIN B] | 1 (≈ 1.08 µM) |
| CC/C=C/C(CC)C/C=C/[C@@]1(CC)C[C@H](CC)[C@@H](CC(=O)O)OO1 (stereo partly specified) | 5.6 (≈ 16.5 µM) |

system: Candida albicans; test: Antimicrobial activity against Candida albicans by standard microdilution broth method; format: functional

| SMILES | MIC [µg/mL] |
| --- | --- |
| CC(CCCCCCC/C=C/C=C/c1ccccc1)C[C@]1(C)C[C@@](C)(CC(=O)O)OO1 (relative stereo) | 1.6 (≈ 3.73 µM) |
| CC/C=C/C(CC)C/C=C/[C@@]1(CC)C[C@H](CC)[C@@H](CC(=O)O)OO1 (stereo partly specified) | 5 (≈ 14.8 µM) |
| Nc1nc(=O)[nH]cc1F [FLUCYTOSINE] | 1.62 (≈ 12.5 µM) |
| CC(CCCCCCC/C=C/C=C/c1ccccc1)C[C@]1(C)C[C@](C)(CC(=O)O)OO1 (relative stereo) | 1.6 (≈ 3.73 µM) |
